From US20230233576A1, “ECLITASERTIB FOR USE IN TREATING CONDITIONS INVOLVING SYSTEMIC HYPERINFLAMMATORY RESPONSE” (priority 2020, published 2023)

System: SARS-COV-2 viral load in blood
Assay: Phase 1b severe COVID-19 study: quantitative SARS-COV-2 viral load in blood
Conditions: for Viral load in plasma: <1660 CP/ML SARS-COV2, number of participants / Viral load in plasma: <1660 CP/ML SARS-COV2, share of participants (in parentheses) / Viral load in plasma: INCONCLUSIVE, number of participants / Viral load in plasma: INCONCLUSIVE, share of participants (in parentheses) / Viral load in plasma: NO SARS-COV2 DETECTED, number of participants / Viral load in plasma: NO SARS-COV2 DETECTED, share of participants (in parentheses) / Viral load in plasma: POSITIVE RESULT, number of participants / Viral load in plasma: POSITIVE RESULT, share of participants (in parentheses): 600 mg (N = 41); for Viral load in plasma: Positive result, Mean / Viral load in plasma: Positive result, Median: 600 mg, participants with positive result
Source text: The clinical assessment in this study included both the assessment of clinical laboratory variables (CRP, laboratory markers of severe COVID-19 [D-Dimer, hematology parameters and thrombolytic therapy and vasopressor treatment]), oxygenation variables (saturated oxygen [SpO2], SpO2/fraction of inspired oxygen [FiO2] ratio), and clinical status variables (7-point clinical scale). The pharmacodynamic assessment included the measurement of peripheral biomarkers (pro-inflammatory cytokines and RIPK1 PD cytokines/chemokines), and optional measurement of viral load of SARS-CoV-2.
Exploratory clinical assessments endpoints included: • Change from baseline in ferritin and LDH at Day 7 and EOT • Proportion of participants per category of the 7-point clinical scale at EOT • Time to improvement by 2 points in category of 7-point clinical scale • Quantitative SARS-COV-2 viral load in blood at baseline and on Day 3, 5, 7 and EOT
Summary of quantitative measurement of SARS-COV-2 plasma viral load over time (at baseline, Day 3, 5, 7, and EOT) is provided in Table 28. An overall trend of decrease viral load and increased number of negative SARS-COV-2 tests were observed over time. Due to a high variability in the viral load values, no interpretation could be drawn for the effect of treatment on the viral load.

CN1C(=O)[C@@H](NC(=O)c2nnc(Cc3ccccc3)[nH]2)COc2cccnc21 [RIPK1 Inhibitor, (S)-5-benzyl-N-(5-methyl-4-oxo-2,3,4,5-tetrahydropyrido[3,2-b][1,4]oxazepin-3-yl)-4H-1,2,4-triazole-3-carboxamide]
Viral load in plasma: <1660 CP/ML SARS-COV2, number of participants (DAY 01 (baseline, predose)): 14
Viral load in plasma: <1660 CP/ML SARS-COV2, share of participants (in parentheses) (DAY 01 (baseline, predose)): (34.1)
Viral load in plasma: INCONCLUSIVE, number of participants (DAY 01 (baseline, predose)): 1
Viral load in plasma: INCONCLUSIVE, share of participants (in parentheses) (DAY 01 (baseline, predose)): (2.4)
Viral load in plasma: NO SARS-COV2 DETECTED, number of participants (DAY 01 (baseline, predose)): 11
Viral load in plasma: NO SARS-COV2 DETECTED, share of participants (in parentheses) (DAY 01 (baseline, predose)): (26.8)
Viral load in plasma: POSITIVE RESULT, number of participants (DAY 01 (baseline, predose)): 7
Viral load in plasma: POSITIVE RESULT, share of participants (in parentheses) (DAY 01 (baseline, predose)): (17.1)
Viral load in plasma: <1660 CP/ML SARS-COV2, number of participants (DAY 03): 12
Viral load in plasma: <1660 CP/ML SARS-COV2, share of participants (in parentheses) (DAY 03): (29.3)
Viral load in plasma: INCONCLUSIVE, number of participants (DAY 03): 2
Viral load in plasma: INCONCLUSIVE, share of participants (in parentheses) (DAY 03): (4.9)
Viral load in plasma: NO SARS-COV2 DETECTED, number of participants (DAY 03): 16
Viral load in plasma: NO SARS-COV2 DETECTED, share of participants (in parentheses) (DAY 03): (39.0)
Viral load in plasma: POSITIVE RESULT, number of participants (DAY 03): 4
Viral load in plasma: POSITIVE RESULT, share of participants (in parentheses) (DAY 03): (9.8)
Viral load in plasma: <1660 CP/ML SARS-COV2, number of participants (DAY 07): 1
Viral load in plasma: <1660 CP/ML SARS-COV2, share of participants (in parentheses) (DAY 07): (2.4)
Viral load in plasma: INCONCLUSIVE, number of participants (DAY 07): 2
Viral load in plasma: INCONCLUSIVE, share of participants (in parentheses) (DAY 07): (4.9)
Viral load in plasma: NO SARS-COV2 DETECTED, number of participants (DAY 07): 12
Viral load in plasma: NO SARS-COV2 DETECTED, share of participants (in parentheses) (DAY 07): (29.3)
Viral load in plasma: POSITIVE RESULT, number of participants (DAY 07): 1
Viral load in plasma: POSITIVE RESULT, share of participants (in parentheses) (DAY 07): (2.4)
Viral load in plasma: <1660 CP/ML SARS-COV2, number of participants (EOT): 4
Viral load in plasma: <1660 CP/ML SARS-COV2, share of participants (in parentheses) (EOT): (9.8)
Viral load in plasma: INCONCLUSIVE, number of participants (EOT): 1
Viral load in plasma: INCONCLUSIVE, share of participants (in parentheses) (EOT): (2.4)
Viral load in plasma: NO SARS-COV2 DETECTED, number of participants (EOT): 28
Viral load in plasma: NO SARS-COV2 DETECTED, share of participants (in parentheses) (EOT): (68.3)
Viral load in plasma: POSITIVE RESULT, number of participants (EOT): 0
Viral load in plasma: Positive result, Mean (DAY 01 (baseline, predose)): 30217.6 copies/mL
Viral load in plasma: Positive result, Median (DAY 01 (baseline, predose)): 7560.0 copies/mL
Viral load in plasma: Positive result, Mean (DAY 03): 7505.0 copies/mL
Viral load in plasma: Positive result, Median (DAY 03): 6332.5 copies/mL
Viral load in plasma: Positive result, Mean (DAY 07): 6240.0 copies/mL
Viral load in plasma: Positive result, Median (DAY 07): 6240.0 copies/mL
